Laboratory results: publication PMC9413440, “An Iterative Approach Guides Discovery of the FabI Inhibitor Fabimycin, a Late-Stage Antibiotic Candidate with In Vivo Efficacy against Drug-Resistant Gram-Negative Infections” (ACS Central Science, 2022)

How the values were obtained:
[1] = system: A. baumannii AR-0088; assay: Dose-ranging and efficacy, neutropenic thigh infection; type: in vivo, mouse; conditions: neutropenic BALB/c mice, burden at 26 h
Text: Neutropenic thigh infection model
Acclimated CD-1 mice (see above) were rendered neutropenic prior to the experiment via cyclophosphamide treatment. […]
Dose-ranging and efficacy of fabimycin
The protocol to assess fabimycin’s efficacy in A. baumannii-infected mice (strain: AR-0088) was approved by the IACUC at Pharmacology Discovery Services, Taiwan, Ltd. (protocol number: IM003-01282019). In this study, neutropenic female BALB/c mice 7-8 weeks in age from BioLASCO Taiwan (AAALAC-certified Charles River Licensee) weighing 18 ± 2 grams were used. The mice were rendered neutropenic and inoculated in the same method as used for the pharmacokinetic study. Fabimycin was formulated in 17% Cremophor EL/3% SBE-β-CD and IV administered. Colistin was formulated in 0.9% NaCl and subcutaneously (SC) administered.
5 or 30 minutes after dosing with respect to IV and SC route to detect acute toxicity, which was recorded and reported, […]
Animals were euthanized using compressed CO2 gas in a CO2 gas chamber. […] Bacterial burden in the tissue homogenates was determined by performing 10-fold serial dilutions and plating 0.1 mL of each to nutrient agar plates. Colonies were counted after 18 - 24 h incubation. The colony-forming unit value per tissue (CFU/thigh) was calculated. […]
IM011-12282020). […] Tissues were collected and pathogen burden evaluated by dilution plating technique on nutrient agar plates.

[2] = system: E. coli MG1655; assay: Selection of resistant mutants, mutant prevention concentration; type: cell-based, Escherichia coli; conditions: 32x MIC, 0 colonies
Description: Selection of resistant mutants
Resistant mutants were generated using the large inoculum method. Briefly, S. aureus 29213, E. coli MG1655, and A. baumannii 19606 (~1 x 1010 CFUs) was plated on 100-mm plates (E. coli and A. baumannii) or 150-mm plates (S. aureus) of MH agar containing either 128, 64, or 32 µg/mL fabimycin (for gram-negatives) or 0.125, 0.062, and 0.031 µg/mL fabimycin (for S. aureus). Plates were incubated at 37 °C for 48 h and counted for the presence of colony forming units.
Glycerol stocks of selected colonies were made, and resistant colonies confirmed by growing on agar plates containing the same concentration of fabimycin that they were generated at.
Sequencing of bacterial fabI
The FabI gene was amplified by PCR. Fabimycin-resistant colonies were picked and diluted in 100 µL sterile, nuclease-free H2O. […] A 10 µL portion of PCR reaction mixture was analyzed by agarose gel electrophoresis to confirm the single 1.4-kilobase pair product. […]
Candidate drugs were incubated with plasma and parent drug levels were monitored at various time points (generally t=0, 10, 20, 30, and 60 minutes) to determine the drug’s half-life in the presence of the chosen system. […] The supernatant was collected after centrifugation, and the sample analyzed by LC-MS where the percentage of compound remaining is plotted vs time to determine the drug’s half-life. […]

Cc1c(CN(C)C(=O)/C=C/c2cnc3c(c2)CC[C@H](N)C(=O)N3)oc2ccccc12 [fabimycin]
reduction of bacterial burden ([1]; 75 mg/kg IV four times a day, NDM-1 containing strain): ~2 log(CFU/thigh) | dose at which significant dose-dependent responses begin ([1]; IV four times a day, doses 1.25–75 mg/kg): 30 mg/kg | mutant prevention concentration (MPC) [2]: 64 µg/mL
